The target of assay [1] is T1, human CRTH2 (Homo sapiens, UniProt Q9Y5Y4).
T1 sequence (Q9Y5Y4 1-395): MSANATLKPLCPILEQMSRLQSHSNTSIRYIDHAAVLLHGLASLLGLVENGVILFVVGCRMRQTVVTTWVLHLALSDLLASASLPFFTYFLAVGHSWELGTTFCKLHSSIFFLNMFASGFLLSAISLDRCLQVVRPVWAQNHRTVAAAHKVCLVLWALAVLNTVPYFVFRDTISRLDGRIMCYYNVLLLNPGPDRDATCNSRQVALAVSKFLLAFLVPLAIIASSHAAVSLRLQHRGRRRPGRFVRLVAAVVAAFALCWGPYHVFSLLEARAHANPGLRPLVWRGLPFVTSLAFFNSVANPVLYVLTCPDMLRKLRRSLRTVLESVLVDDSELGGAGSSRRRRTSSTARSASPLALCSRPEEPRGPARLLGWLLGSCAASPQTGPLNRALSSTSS
Put plainly: Calcium Flux Assay Using Fluorometric Imaging Plate Reader (FLIPR). The settings on record: CHO-K1 cells transfected with G-alpha 16 and human CRTH2 receptor; inhibition of ligand (DK-PGD2) induced Ca2+ flux. The arrangement: expressed in transfected cells; host or cells: CHO-K1 (previously transfected with G-alpha 16). The class given is cell-based. The method, then: Calcium Flux Assay Using Fluorometric Imaging Plate Reader Cell Culture Conditions:
CHO-K1 cells previously transfected with G-alpha 16 were subsequently transfected with the human CRTH2 receptor and the neomycin resistance gene. Following selection in 800 μg/mL G418 (geneticin), individual clones were assayed for their receptor expression based on staining with an anti human CRTH2 IgG, followed by assaying for their response to 13,14-dihydro-15-keto Prostaglandin D2 (DK-PDG2) (ligand) in the Ca^2+Flux assay. Positive clones were then cloned by limiting dilution cloning. The transfected cells were cultured in Ham's F-12 medium supplemented with 10% fetal bovine serum, 2 mM glutamine, 100 U/mL penicillin/100 μg/mL streptomycin, 200 μg/mL hygromycin B, and 800 μg/mL G418 (geneticin). Cells were harvested with trypsin-EDTA (trypsin-ethylenediaminetetraacetic acid) and counted using ViaCount® reagent (from Guava Technologies, Inc. which contains two DNA-binding dyes that enable the reagent user to distinguish between viable and non-viable cells). The cell suspension volume was adjusted to 2.5×10^5 cells/mL with complete growth media. Aliquots of 50 μL were dispensed into BD Falcon™ 384 well black/clear microplates (from BD Biosciences, a division of Becton, Dickinson and Company) and the microplates were placed in a 37° C. CO2 incubator overnight. The following day, the microplates were used in the assay.
Loading Buffer containing dye (from the FLIPR® Calcium 3 Assay Kit from Molecular Devices, a division of MDS Analytical Technologies and MDS Inc.) was prepared by dissolving the contents of one bottle into 200 mL Hank's Balanced Salt Solution containing 20 mM HEPES (4-(2-hydroxyethyl)-1-piperazineethanesulfonic acid) and 2.5 mM probenecid. Growth media was removed from the cell plates and 25 μL of Hank's Balanced Salt Solution (HBSS) containing 20 mM HEPES, 0.05% BSA and 2.5 mM probenecid was added to each well followed by 25 μL of diluted dye using a Multidrop dispenser. The plates were then incubated for 1 hour at 37° C.
During the incubation, test compound plates were prepared by adding 90 μL of HBSS/20 mM HEPES/0.005% BSA buffer to the 2 μL of serial diluted compounds. To prepare serial diluted compounds, 20 mM stocks of compounds were dissolved in 100% DMSO. The compound dilution plate was set up as follows: well #1 received 5 μL of compound plus 10 μL of DMSO. Wells 2-10 received 10 μL of DMSO. 5 μL was mixed and transferred from well #1 into well #2. 1:3 serial dilutions were continued out 10 steps. […]
After incubation, both the cell and “assay plate” plates were brought to the fluorometric imaging plate reader (FLIPR®) and 20 μL of the diluted compounds were transferred to the cell plates by the FLIPR®. […] During the assay, fluorescence readings were taken simultaneously from all 384 wells of the cell plate every 1.5 seconds. Five readings were taken to establish a stable baseline, then 20 μL of sample was rapidly (30 μL/sec) and simultaneously added to each well of the cell plate. The fluorescence was continuously monitored before, during and after sample addition for a total elapsed time of 100 seconds. Responses (increase in peak fluorescence) in each well following agonist addition were determined. The initial fluorescence reading from each well, prior to ligand stimulation, was used as a zero baseline value for the data from that well. The responses were expressed as % inhibition of the buffer control. […]
In general terms: A change in cytosolic calcium serves as a functional read-out for many receptors and channels.

Assay [2] has as its target T1, human CRTH2. Put plainly: Human CRTH2 Receptor Binding Assay (whole cell, [3H]ramatroban). On the set-up: expressed in transfected cells; host or cells: CHO-K1. The settings on record: whole CHO-K1 cells stably expressing human CRTH2 and G-alpha16; 20 nM [3H]ramatroban; 1 hour, room temperature. The text has this:
A whole cell receptor binding assay using [^3H]ramatroban as the competing radioactive ligand was employed to evaluate the compound binding activity to human CRTH2. The radioactive ligand [^3H]ramatroban was synthesized according to Sugimoto et. al. (Eur. J. Pharmacol. 524, 30-37, 2005) to a specific activity of 42 Ci/mmol.
A cell line stably expressing human CRTH2 was established by transfecting CHO-K1 cells with two mammalian expression vectors that harbored human CRTH2 and G-alpha16 cDNAs, respectively, using FuGene® 6 transfection reagent (from Roche). Stable clones expressing CRTH2 were selected by staining each clone with BM16 (BD Pharmingen™ from BD Biosciences, a division of Becton, Dickinson and Company), which is a rat monoclonal antibody to human CRTH2. The cells were maintained as monolayer cultures in Ham's F-12 medium containing 10% fetal bovine serum, 100 units/mL penicillin, 100 μg/mL streptomycin, 2 mM glutamine, 0.5 mg/mL G418 (geneticin) for CRTH2, and 0.2 mg/mL hygromycin-B (for G-alpha 16). For whole cell receptor binding assay, the monolayer cells were rinsed once with PBS (phosphate buffered saline), dissociated using ethylenediaminetetraacetate (Versene™ EDTA from Lonza Inc.), and suspended in PBS containing 10 mM MgCl2 and 0.06% BSA (bovine serum albumin) at 1.5×10^6 cells/mL.
The binding reactions (0.2 mL) were performed in 96-well plates at room temperature in PBS containing 1.5×10^5 cells, 10 mM MgCl2, 0.06% BSA, 20 nM [^3H]ramatroban, and test compound at various concentrations. After 1 hour of binding reactions, the cells were harvested on GF™/B filter microplates (microtiter plates with embedded glass fiber from PerkinElmer, Inc.) and washed 5 times with PBS using a Filtermate™ Harvester (a cell harvester that harvests and washes cells from microplates from PerkinElmer, Inc.). The radioactivities bound to the cells were determined using a microplate scintillation counter (TopCount® NXT, from PerkinElmer, Inc.) after adding 50 μL of Microscint™ 20 scintillation fluid (from PerkinElmer, Inc.) to each well of the filter plates. The radioactivity from non-specific binding was determined by replacing compound with 10 μM of 15(R)-15-methyl PGD2 (from Cayman Chemical Company) in the reaction mixtures. The radioactivity bound to the cells in the absence of compound (total binding) was determined by replacing compound with 0.25% of DMSO (dimethyl sulfoxide) in the reaction mixture. Specific binding data were obtained by subtracting the radioactivity of non-specific binding from each binding data.
The IC50 value is defined as the concentration of the tested compound that is required for 50% inhibition of total specific binding. In order to calculate the IC50 value, the percent inhibition data were determined for 7 concentrations for each compound. The percent inhibition for a compound at each concentration was calculated according to the following formula, [1-(specific binding in the presence of compound)/(total specific binding)]×100. The IC50 value was then obtained by fitting the percent inhibition data to a sigmoidal dose-response (4 parameter logistic) model in the XLfit® software Excel add-in program [from ID Business Solutions Ltd., model 205, where F(x)=(A+(B−A)/(1+((C/x)^D)))].

Molecules are shown by their SMILES.

What is called IC50 is the midpoint of a concentration-inhibition curve. For the molecule `CCc1ccccc1N1CCN(C(=O)c2c(C)c(CC(=O)O)cc3ccc(F)cc23)CC1` [Example 2-10, {4-[4-(2-Ethyl-phenyl)-piperazine-1-carbonyl]-6-fluoro-3-methyl-naphthalen-2-yl}-acetic acid], the IC50 at human CRTH2 [1] is above 5000 nM; at human CRTH2 [2], 450 nM.

For `COc1ccccc1N1CCN(C(=O)c2c(C)c(CC(=O)O)cc3ccc(F)cc23)CC1` [Example 2-8, {6-Fluoro-4-[4-(2-methoxy-phenyl)-piperazine-1-carbonyl]-3-methyl-naphthalen-2-yl}-acetic acid], the IC50 on human CRTH2 [1] is above 5000 nM; on human CRTH2 [2], 458 nM.

`CCS(=O)(=O)N1CCC(Oc2cc(CC(=O)O)cc3ccc(F)cc23)CC1` [Example 4-2, [4-(1-Ethanesulfonyl-piperidin-4-yloxy)-6-fluoro-naphthalen-2-yl]-acetic acid]: the IC50 at human CRTH2 [1] was above 5000 nM; on human CRTH2 [2] it was 20.3 nM.

The molecule `Cc1c(CC(=O)O)cc2ccc(F)cc2c1C(=O)N1CCN(c2ccc(F)cc2)CC1` [Example 2-1, {6-Fluoro-4-[4-(4-fluoro-phenyl)-piperazine-1-carbonyl]-3-methyl-naphthalen-2-yl}-acetic acid] came in with an IC50 on human CRTH2 [2] of 18.2 nM.

`Cc1c(CC(=O)O)cc2ccc(F)cc2c1C(=O)N1CCN(c2cc(Cl)cc(Cl)c2)CC1` [Example 2-17, {4-[4-(3,5-Dichloro-phenyl)-piperazine-1-carbonyl]-6-fluoro-3-methyl-naphthalen-2-yl}-acetic acid] had an IC50 on human CRTH2 [2] of 21.9 nM.

As to `O=C(O)Cc1cc(OC2CCN(C(=O)c3cccc(F)c3)CC2)c2cc(F)ccc2c1` [Example 5-8, {6-Fluoro-4-[1-(3-fluoro-benzoyl)-piperidin-4-yloxy]-naphthalen-2-yl}-acetic acid], on human CRTH2 [2], the IC50 was found to be 29.8 nM.

Consider `CCNC(=O)N1CCC(Oc2cc(CC(=O)O)cc3ccc(F)cc23)CC1` [Example 6-1, [4-(1-Ethylcarbamoyl-piperidin-4-yloxy)-6-fluoro-naphthalen-2-yl]-acetic acid], for which the IC50 at human CRTH2 [2] was determined as 24.5 nM.

As to `Cc1c(CC(=O)O)cc2ccc(F)cc2c1C(=O)N1CCN(c2cccc(Cl)c2)CC1` [Example 2-21, {4-[4-(3-Chloro-phenyl)-piperazine-1-carbonyl]-6-fluoro-3-methyl-naphthalen-2-yl}-acetic acid], the IC50 on human CRTH2 [2] stood at 18.9 nM.

Turning to `O=C(O)Cc1cc(OC2CCN(C(=O)Nc3ccc(F)cc3)CC2)c2cc(F)ccc2c1` [Example 6-4, {6-Fluoro-4-[1-(4-fluoro-phenylcarbamoyl)-piperidin-4-yloxy]-naphthalen-2-yl}-acetic acid], the IC50 at human CRTH2 [2] amounted to 5 nM.

`Cc1ccc(N2CCN(C(=O)c3c(C)c(CC(=O)O)cc4ccc(F)cc34)CC2)cc1` [Example 2-16, [6-Fluoro-3-methyl-4-(4-p-tolyl-piperazine-1-carbonyl)-naphthalen-2-yl]-acetic acid]: the IC50 on human CRTH2 [2] was 26.8 nM.

Regarding `Cc1c(CC(=O)O)cc2ccc(F)cc2c1C(=O)N1CCN(c2ccccc2C(F)(F)F)CC1` [Example 2-15, {6-Fluoro-3-methyl-4-[4-(2-trifluoromethyl-phenyl)-piperazine-1-carbonyl]-naphthalen-2-yl}-acetic acid], the concentration for half-maximal inhibition (IC50) on human CRTH2 [1] is above 5000 nM; at human CRTH2 [2] it was 253 nM.

In the case of `O=C(O)Cc1cc(OC2CCN(S(=O)(=O)c3ccc(F)cc3)CC2)c2cc(F)ccc2c1` [Example 4-8, {6-Fluoro-4-[1-(4-fluoro-benzenesulfonyl)-piperidin-4-yloxy]-naphthalen-2-yl}-acetic acid], the IC50 at human CRTH2 [2] was 2.4 nM.

In turn, `Cc1c(CC(=O)O)cc2ccc(F)cc2c1C(=O)N1CCN(c2ccccn2)CC1` [Example 2-2, [6-Fluoro-3-methyl-4-(4-pyridin-2-yl-piperazine-1-carbonyl)-naphthalen-2-yl]-acetic acid] gave an IC50 on human CRTH2 [2] of 2.6 nM.

Turning to `Cc1c(CC(=O)O)cc2ccc(F)cc2c1C(=O)N1CCN(S(=O)(=O)c2cccc(F)c2)CC1` [Example 1-16, {6-Fluoro-4-[4-(3-fluoro-benzenesulfonyl)-piperazine-1-carbonyl]-3-methyl-naphthalen-2-yl}-acetic acid], the IC50 on human CRTH2 [2] is 3.1 nM.

Regarding `CC(=O)N1CCC(Oc2cc(CC(=O)O)cc3ccc(F)cc23)CC1` [Example 5-1, [4-(1-Acetyl-piperidin-4-yloxy)-6-fluoro-naphthalen-2-yl]-acetic acid], the IC50 is above 5000 nM on human CRTH2 [1] and 163 nM on human CRTH2 [2].

On human CRTH2 [2], `Cc1c(CC(=O)O)cc2ccc(F)cc2c1C(=O)N1CCN(c2cccc(C(F)(F)F)c2)CC1` [Example 2-7, {6-Fluoro-3-methyl-4-[4-(3-trifluoromethyl-phenyl)-piperazine-1-carbonyl]-naphthalen-2-yl}-acetic acid] had an IC50 of 57.1 nM.
